Reference: ChEMBL document CHEMBL5053534, “Germacrane sesquiterpenes from leaves of Eupatorium chinense inhibit protein tyrosine phosphatase” (Bioorg Med Chem Lett, 2021)

How the values were obtained:
[1] = molecular target: T1, Tyrosine-protein phosphatase non-receptor type 1 (Homo sapiens, UniProt P18031); assay: Inhibition of human recombinant PTP1B using pNPP as substrate assessed as reduction in p-nitrophenol release incubated for 30 mins by absorbance based analysis
T1 sequence (P18031 whole entry): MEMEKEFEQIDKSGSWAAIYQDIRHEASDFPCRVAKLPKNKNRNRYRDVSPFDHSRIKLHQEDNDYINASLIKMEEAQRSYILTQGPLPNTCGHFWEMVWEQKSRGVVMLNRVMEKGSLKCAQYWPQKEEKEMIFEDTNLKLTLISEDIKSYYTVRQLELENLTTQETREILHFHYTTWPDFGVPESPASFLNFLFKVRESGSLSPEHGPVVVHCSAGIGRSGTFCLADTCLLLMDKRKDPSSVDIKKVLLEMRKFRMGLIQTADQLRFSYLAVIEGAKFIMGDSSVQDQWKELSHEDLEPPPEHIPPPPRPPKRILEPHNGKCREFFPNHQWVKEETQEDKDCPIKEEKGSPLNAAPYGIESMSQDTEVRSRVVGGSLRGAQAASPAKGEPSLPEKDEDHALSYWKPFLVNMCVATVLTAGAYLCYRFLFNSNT

[2] = molecular target: T2, Tyrosine-protein phosphatase non-receptor type 2 (Homo sapiens, UniProt P17706); assay: Inhibition of human recombinant TCPTP using pNPP as substrate assessed as reduction in p-nitrophenol release incubated for 30 mins by absorbance based analysis
T2 sequence (P17706 whole entry): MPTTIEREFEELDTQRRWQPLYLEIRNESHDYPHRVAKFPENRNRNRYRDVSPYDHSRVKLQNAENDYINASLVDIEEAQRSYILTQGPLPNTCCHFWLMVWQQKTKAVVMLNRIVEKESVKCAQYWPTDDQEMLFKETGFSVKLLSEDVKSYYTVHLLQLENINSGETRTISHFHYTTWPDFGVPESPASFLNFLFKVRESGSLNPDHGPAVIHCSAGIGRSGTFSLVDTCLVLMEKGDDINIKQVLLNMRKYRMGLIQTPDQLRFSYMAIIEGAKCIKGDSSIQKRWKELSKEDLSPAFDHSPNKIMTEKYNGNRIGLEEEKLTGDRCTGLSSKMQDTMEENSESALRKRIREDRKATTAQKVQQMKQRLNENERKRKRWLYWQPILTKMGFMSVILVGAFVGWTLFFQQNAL

SMILES | IC50 [1] [µM] | IC50 [2] [µM]
C=C1C(=O)O[C@@H]2/C=C(\C)CC/C=C(\CO)C[C@@H](OC(=O)/C(C)=C/C)[C@@H]12 | > 25 | > 25
C=C1C(=O)O[C@@H]2/C=C(\C)CC/C=C(\C)C[C@@H](OC(=O)/C(=C/C)CO)[C@@H]12 | > 29 | > 29
C=C1C(=O)O[C@@H]2/C=C(\C)CC/C=C(\C)C[C@@H](OC(=O)/C(=C/CO)CO)[C@@H]12 | > 28 | > 28
C=C1C(=O)O[C@@H]2/C=C(\C)C[C@H](O)/C=C(\C)C[C@@H](OC(=O)/C(=C\C)CO)[C@@H]12 | 28 | > 28
C=C1C(=O)O[C@@H]2/C=C(\C)CC/C=C(\C)C[C@@H](OC(=O)/C(=C\C)CO)[C@@H]12 | 11 | 25
C=C1C(=O)O[C@@H]2/C=C(\C)CC/C=C(\C)C[C@@H](OC(=O)/C(=C\COC(C)=O)CO)[C@@H]12 | > 29 | > 29
C=C1C(=O)O[C@@H]2/C=C(\C)[C@@H](O)C/C=C(\C)C[C@@H](OC(=O)/C(=C\C)COC(C)=O)[C@@H]12 | 25 | > 25
C=C1C(=O)O[C@@H]2/C=C(\C)CC/C=C(\C)C[C@@H](OC(=O)/C(=C/C)COC(C)=O)[C@@H]12 | > 25 | > 25
C=C1C(=O)O[C@@H]2/C=C(\C)C[C@H](O)/C=C(\C)C[C@@H](OC(=O)/C(=C\C)COC(C)=O)[C@@H]12 | > 25 | > 25
